# Assay results as given in US8580811B2 (Ligand Pharmaceuticals Incorporated, priority 2005, dated 2013).
# Biological target: T1, human AR (Homo sapiens, UniProt P10275)
# T1 construct: expressed in transfected cells; host or cells: COS-1 cells
# T1 sequence (P10275 1-920): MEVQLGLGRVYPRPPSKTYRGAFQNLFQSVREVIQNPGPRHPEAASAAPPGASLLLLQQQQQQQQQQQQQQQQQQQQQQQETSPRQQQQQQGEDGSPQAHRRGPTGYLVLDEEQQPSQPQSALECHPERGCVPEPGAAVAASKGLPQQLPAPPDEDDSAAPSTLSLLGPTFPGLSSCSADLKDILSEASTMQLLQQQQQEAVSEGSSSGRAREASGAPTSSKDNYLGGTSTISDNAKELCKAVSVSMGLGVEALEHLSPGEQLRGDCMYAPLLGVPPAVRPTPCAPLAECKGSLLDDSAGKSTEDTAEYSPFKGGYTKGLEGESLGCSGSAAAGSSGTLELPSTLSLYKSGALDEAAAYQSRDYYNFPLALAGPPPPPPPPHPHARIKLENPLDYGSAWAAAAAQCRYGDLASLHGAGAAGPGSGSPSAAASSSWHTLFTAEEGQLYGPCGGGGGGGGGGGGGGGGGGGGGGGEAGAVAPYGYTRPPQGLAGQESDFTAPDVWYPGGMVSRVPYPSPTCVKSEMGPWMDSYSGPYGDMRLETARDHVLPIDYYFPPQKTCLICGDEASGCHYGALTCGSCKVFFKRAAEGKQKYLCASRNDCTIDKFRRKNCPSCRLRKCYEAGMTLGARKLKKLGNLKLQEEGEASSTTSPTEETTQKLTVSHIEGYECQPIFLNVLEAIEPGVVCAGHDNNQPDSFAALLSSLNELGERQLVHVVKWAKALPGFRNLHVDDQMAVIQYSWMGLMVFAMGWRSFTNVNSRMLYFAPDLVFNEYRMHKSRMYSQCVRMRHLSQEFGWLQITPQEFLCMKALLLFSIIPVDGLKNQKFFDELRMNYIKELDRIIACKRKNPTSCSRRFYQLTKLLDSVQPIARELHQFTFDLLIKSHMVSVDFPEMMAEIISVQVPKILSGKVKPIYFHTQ
# Assay: IR Binding Assay: whole cell competitive binding of test compounds against 3H-DHT in COS-1 cells transfected with pRShAR
# Conditions: not given
# Procedure: For the whole cell binding assay, COS-1 cells in 96-well microtiter plates including DMEM-10% FBS were transfected as described above with the following plasmid DNA: pRShAR (2 ng/well), pRS-β-Gal (50 ng/well) and pGEM (48 ng/well). Six hours after transfection, media was removed, the cells were washed with PBS and fresh media was added. The next day, the media was changed to DMEM-serum free to remove any endogenous ligand that might be complexed with the receptor in the cells.
# After 24 hours in serum-free media, either a saturation analysis to determine the Kd for tritiated dihydrotestosterone (^3H-DHT) on human AR or a competitive binding assay to evaluate the ability of test compounds to compete with ^3H-DHT for AR was performed. […] For the competitive binding assay, media including 1 nM ^3H-DHT and test compounds in concentrations ranging from 10^−10 to 10^−6 M were added to the cells. Three replicates were used for each sample. After three hours at 37° C., an aliquot of the total binding media at each concentration of ^3H-DHT was removed to estimate the amount of free ^3H-DHT. The remaining media was removed, the cells were washed three times with PBS to remove unbound ligand, and cells were lysed with a Triton X-100-based buffer. The lysates were assayed for amount of bound ^3H-DHT and β-Gal activity using a scintillation counter or spectrophotometer, respectively.
# For the saturation analyses, the difference between the total binding and the nonspecific binding, normalized by the β-Gal rate, was defined as specific binding. The specific binding was evaluated by Scatchard analysis to determine the Kd for ^3H-DHT. See e.g., D. Rodbard, “Mathematics and statistics of ligand assays: an illustrated guide” In: J. Langon and J. J. Clapp, eds., Ligand Assay, Masson Publishing U.S.A., Inc., New York, pp. 45-99, (1981), the disclosure of which is herein incorporated by reference. For the competition studies, the data was plotted as the amount of ^3H-DHT (% of control in the absence of test compound) remaining over the range of the dose-response curve for a given compound. […] The Ki values were determined by application of the Cheng-Prusoff equation to the IC50 values, where:
# [formula] After correcting for non-specific binding, IC50 values were determined. […] The IC50 value was determined graphically from a log-logit plot of the data. The Ki values were determined by application of the Cheng-Prusoff equation to the IC50 values, the labeled ligand concentration and the Kd of the labeled ligand. see e.g., Cheng, Y. C. and Prusoff, W. H. Biochem. Pharmacol. 22:3099 (1973).
row,Compound,Ki
1,"CCCc1c(C)n(CC(F)(F)F)c2ccc3[nH]c(=O)cc(Cl)c3c12 [Compound 210, 9-Chloro-2-methyl-1-propyl-3-(2,2,2-trifluoroethyl)-3,6-dihydro-pyrrolo[3,2-f]quinolin-7-one]",< 5 nM
2,"Cc1cc2c(ccc3[nH]c(=O)cc(Cl)c32)[nH]1 [Compound 112, 9-Chloro-2-methyl-3,6-dihydro-pyrrolo[3,2-f]quinolin-7-one]",> 10 nM
3,"CC1c2c(ccc3[nH]c(=O)cc(Cl)c23)N(CC(F)(F)F)C1c1cc(C(F)(F)F)cc(C(F)(F)F)c1 (racemic) [Compound 158, (±)-9-Chloro-2-(3,5-bis(trifluoromethyl)phenyl)-1-methyl-3-(2,2,2-trifluoroethyl)-1,2,3,6-tetrahydropyrrolo[3,2-f]quinolin-7-one]",< 5 nM
4,"Cc1c(C(F)(F)F)[nH]c2ccc3[nH]c(=O)cc(Cl)c3c12 [Compound 108, 9-Chloro-1-methyl-2-trifluoromethyl-3,6-dihydro-pyrrolo[3,2-f]quinolin-7-one]",< 5 nM
5,"Cc1c(C)n(C)c2ccc3[nH]c(=O)cc(Cl)c3c12 [Compound 208, 9-Chloro-1,2,3-trimethyl-3,6-dihydro-pyrrolo[3,2-f]quinolin-7-one]",5 to 10 nM
6,"Cc1c(C)n(CCC(F)(F)F)c2ccc3[nH]c(=O)cc(Cl)c3c12 [Compound 213, 9-Chloro-1,2-dimethyl-3-(3,3,3-trifluoropropyl)-3,6-dihydro-pyrrolo[3,2-f]quinolin-7-one]",< 5 nM
7,"Cc1c(C)n(C[C@H](O)CO)c2ccc3[nH]c(=O)cc(Cl)c3c12 [Compound 291, (S)-9-Chloro-3-(2,3-dihydroxypropyl)-1,2-dimethyl-3,6-dihydro-pyrrolo[3,2-f]-quinolin-7-one]",> 10 nM
8,"CCC1C(C)c2c(ccc3[nH]c(=O)cc(C(F)(F)F)c23)N1CCC(F)(F)F (racemic) [Compound 180, (±)-2-Ethyl-1-methyl-9-trifluoromethyl-3-(3,3,3-trifluoropropyl)-1,2,3,6-tetrahydro-pyrrolo[3,2-f]quinolin-7-one]",< 5 nM
9,"CCC1C(C)c2c(ccc3[nH]c(=O)cc(Cl)c23)N1CC(F)(F)F (racemic) [Compound 128, (±)-9-Chloro-2-ethyl-1-methyl-3-(2,2,2-trifluoro-ethyl)-1,2,3,6-tetrahydro-pyrrolo[3,2-f]quinolin-7-one]",> 10 nM
10,"Cc1c(-c2cccc(F)c2)n(CC(F)(F)F)c2ccc3[nH]c(=O)cc(Cl)c3c12 [Compound 251, 9-Chloro-2-(3-fluorophenyl)-1-methyl-3-(2,2,2-trifluoroethyl)-3,6-dihydro-pyrrolo[3,2-f]-quinolin-7-one]",< 5 nM
11,"CC1c2c(ccc3[nH]c(=O)cc(Cl)c23)N(CC(F)(F)F)C1c1cccc(Cl)c1 (racemic) [Compound 146, (±)-9-Chloro-2-(3-chlorophenyl)-1-methyl-3-(2,2,2-trifluoroethyl)-1,2,3,6-tetrahydro-pyrrolo[3,2-f]quinolin-7-one]",> 10 nM
12,"CCn1cc(C)c2c3c(Cl)cc(=O)[nH]c3ccc21 [Compound 193, 9-Chloro-3-ethyl-1-methyl-3,6-dihydro-pyrrolo[3,2-f]quinolin-7-one]",5 to 10 nM
13,"C#CCn1c(C)c(C)c2c3c(C(F)(F)F)cc(=O)[nH]c3ccc21 [Compound 242, 1,2-Dimethyl-3-(prop-2-ynyl)-9-trifluoromethyl-3,6-dihydro-pyrrolo[3,2-f]quinolin-7-one]",< 5 nM
14,"CCc1c(-c2ccccc2)n(CC(F)(F)F)c2ccc3[nH]c(=O)cc(Cl)c3c12 [Compound 203, 9-Chloro-1-ethyl-2-phenyl-3-(2,2,2-trifluoroethyl)-3,6-dihydro-pyrrolo[3,2-f]quinolin-7-one]",< 5 nM
15,"CC1c2c(ccc3[nH]c(=O)cc(Cl)c23)N(CC(F)(F)C(F)(F)F)C1c1ccccc1 (racemic) [Compound 171, (±)-9-Chloro-1-methyl-3-(2,2,3,3,3-pentafluoropropyl)-2-phenyl-1,2,3,6-tetrahydro-pyrrolo[3,2-f]quinolin-7-one]",> 10 nM
16,"CCc1c(C)c2c3c(C(F)(F)F)cc(=O)[nH]c3ccc2n1CCC(F)(F)F [Compound 226, 2-Ethyl-1-methyl-9-trifluoromethyl-3-(3,3,3-trifluoropropyl)-3,6-dihydro-pyrrolo[3,2-f]-quinolin-7-one]",< 5 nM
17,"CC1c2c(ccc3[nH]c(=O)cc(Cl)c23)N(CCc2cccs2)C1C (racemic) [Compound 142, (±)-9-Chloro-1,2-dimethyl-3-(2-thien-2-yl-ethyl)-1,2,3,6-tetrahydro-pyrrolo[3,2-f]-quinolin-7-one]",< 5 nM
18,"Cc1c(-c2ccc(C(F)(F)F)cc2)n(CC(F)(F)F)c2ccc3[nH]c(=O)cc(Cl)c3c12 [Compound 202, 9-Chloro-1-methyl-2-(4-trifluoromethylphenyl)-3-(2,2,2-trifluoroethyl)-3,6-dihydro-pyrrolo[3,2-f]-quinolin-7-one]",> 10 nM
19,"Cc1c(-c2cccs2)n(CC(F)(F)C(F)(F)F)c2ccc3[nH]c(=O)cc(Cl)c3c12 [Compound 259, 9-Chloro-1-methyl-3-(2,2,3,3,3-pentafluoropropyl)-2-thiophen-2-yl-3,6-dihydro-pyrrolo[3,2-f]quinolin-7-one]",> 10 nM
20,"CC(C)=Cn1c(C)c(C)c2c3c(C(F)(F)F)cc(=O)[nH]c3ccc21 [Compound 238, 1,2-Dimethyl-3-(2-methylprop-1-enyl)-9-trifluoromethyl-3,6-dihydro-pyrrolo[3,2-f]-quinolin-7-one]",< 5 nM
21,"CC1c2c(ccc3[nH]c(=O)cc(Cl)c23)N(CC(F)(F)F)C1c1ccc(F)cc1F (racemic) [Compound 150, (±)-9-Chloro-2-(2,4-difluorophenyl)-1-methyl-3-(2,2,2-trifluoroethyl)-1,2,3,6-tetrahydropyrrolo-[3,2-f]quinolin-7-one]",> 10 nM
22,"CCC1c2c(ccc3[nH]c(=O)cc(Cl)c23)N(CC(F)(F)F)C1c1ccccc1 (racemic) [Compound 160, (±)-9-Chloro-1-ethyl-2-phenyl-3-(2,2,2-trifluoroethyl)-1,2,3,6-tetrahydro-pyrrolo[3,2-f]-quinolin-7-one]",> 10 nM
23,"CC(=O)OCCCn1c(C)c(C)c2c3c(C(F)(F)F)cc(=O)[nH]c3ccc21 [Compound 250, 3-(3-Acetoxypropyl)-1,2-dimethyl-9-trifluoromethyl-3,6-dihydro-pyrrolo[3,2-f]quinolin-7-one]",< 5 nM
24,"CC1c2c(ccc3[nH]c(=O)cc(C(F)(F)F)c23)N(CC(F)(F)C(F)(F)F)C1C (racemic) [Compound 173, (±)-1,2-Dimethyl-3-(2,2,3,3,3-pentafluoropropyl)-9-trifluoromethyl-1,2,3,6-tetrahydro-pyrrolo[3,2-f]quinolin-7-one]",< 5 nM

# Same assay, conditions: competition with 1 nM 3H-DHT, transfected COS-1 cells, 3 h at 37° C., Cheng-Prusoff from IC50
row,Compound,Ki
1,"Cc1c(C)n(CC(O)C(F)(F)F)c2ccc3[nH]c(=O)cc(Cl)c3c12 (racemic) [Compound 279, rac-9-Chloro-1,2-dimethyl-3-(3,3,3-trifluoro-2-hydroxy-propyl)-3,6-dihydro-pyrrolo[3,2-f]-quinolin-7-one]",< 5 nM
